Data: PubChem BioAssay AID330 (DTP/NCI, 2004)
Several values for one entry are separate records, joined by “and”; a condition that tells them apart may be missing. Identical values can stand only once. Inconclusive results and toxic doses are left out. Rule for the calls: active = survival T/C of 150% or more; inactive = T/C below 125% in these data.

Tested on: P388 leukemia ip, CD2F1 mice, survival T/C
Assay: NCI In Vivo Anticancer Drug Screen. Data for tumor model P388 Leukemia (intraperitoneal) in CD2F1 (CDF1) mice
Conditions: endpoint: median survival time, higher = longer survival
Method in brief: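 Mice carrying the transplanted tumor received test compound or vehicle. Survival was recorded in each group, and the value is the treated-group measurement divided by that of the vehicle-treated control group.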

[1] = dose: 60.0 mg/kg/injection, schedule: Q01DX005 (ip), vehicle: saline with Tween-80
[2] = dose: 120.0 mg/kg/injection, schedule: Q01DX005 (ip), vehicle: saline with Tween-80
[3] = dose: 240.0 mg/kg/injection, schedule: Q01DX005 (ip), vehicle: saline with Tween-80
[4] = dose: 50.0 mg/kg/injection, schedule: Q01DX009 (ip), vehicle: Klucel (hydroxypropylcellulose) (HPC)
[5] = dose: 50.0 mg/kg/injection, schedule: Q01DX005 (ip), vehicle: Klucel (hydroxypropylcellulose) (HPC)
[6] = dose: 100.0 mg/kg/injection, schedule: Q01DX005 (ip), vehicle: Klucel (hydroxypropylcellulose) (HPC)
[7] = dose: 200.0 mg/kg/injection, schedule: Q01DX005 (ip), vehicle: Klucel (hydroxypropylcellulose) (HPC)
[8] = dose: 12.5 mg/kg/injection, schedule: Q01DX009 (ip), vehicle: saline
[9] = dose: 50.0 mg/kg/injection, schedule: Q01DX009 (ip), vehicle: saline with Tween-80
[10] = dose: 50.0 mg/kg/injection, schedule: Q01DX009 (ip), vehicle: saline
[11] = dose: 25.0 mg/kg/injection, schedule: Q01DX009 (ip), vehicle: saline with Tween-80
[12] = dose: 100.0 mg/kg/injection, schedule: Q01DX009 (ip), vehicle: saline
[13] = dose: 200.0 mg/kg/injection, schedule: Q01DX009 (ip), vehicle: saline
[14] = dose: 50.0 mg/kg/injection, schedule: Q01DX005 (ip), vehicle: saline with Tween-80
[15] = dose: 100.0 mg/kg/injection, schedule: Q01DX005 (ip), vehicle: saline with Tween-80
[16] = dose: 200.0 mg/kg/injection, schedule: Q01DX005 (ip), vehicle: saline with Tween-80

Measured: T/C

CO/C=C1\CC(=O)N(c2cccc([N+](=O)[O-])c2)C1=O
inactive: dose: 25.0 mg/kg/injection, schedule: Q04DX003 (ip), vehicle: saline 97 % of control | dose: 50.0 mg/kg/injection, schedule: Q04DX003 (ip), vehicle: saline 96 % of control | dose: 100.0 mg/kg/injection, schedule: Q04DX003 (ip), vehicle: saline 94 % of control and 96 % of control | dose: 200.0 mg/kg/injection, schedule: Q04DX003 (ip), vehicle: saline 90 % of control | dose: 400.0 mg/kg/injection, schedule: Q04DX003 (ip), vehicle: saline 97 % of control

C=C1C(=O)OC2C1C(OC(=O)/C(=C/CO)CO)CC1(CO1)C1CC=C(C)C21 (configuration not stated)
inactive: dose: 0.94 mg/kg/injection, schedule: Q01DX005 (ip), vehicle: Klucel (hydroxypropylcellulose) (HPC) 111 % of control | dose: 1.87 mg/kg/injection, schedule: Q01DX005 (ip), vehicle: Klucel (hydroxypropylcellulose) (HPC) 107 % of control | dose: 3.75 mg/kg/injection, schedule: Q01DX005 (ip), vehicle: Klucel (hydroxypropylcellulose) (HPC) 108 % of control

CCOC(=O)c1ccc(N=C=S)cc1
inactive: dose: 6.25 mg/kg/injection, schedule: Q01DX009 (ip), vehicle: distilled water + Tween-80 100 % of control | dose: 12.5 mg/kg/injection, schedule: Q01DX009 (ip), vehicle: distilled water + Tween-80 100 % of control | dose: 25.0 mg/kg/injection, schedule: Q01DX009 (ip), vehicle: distilled water + Tween-80 100 % of control and 111 % of control | dose: 50.0 mg/kg/injection, schedule: Q01DX009 (ip), vehicle: distilled water + Tween-80 117 % of control | dose: 100.0 mg/kg/injection, schedule: Q01DX009 (ip), vehicle: distilled water + Tween-80 109 % of control

O=C(O)CNC(=O)C(=O)c1c[nH]c2ccc([N+](=O)[O-])cc12
inactive: [1] 97 % of control | [2] 97 % of control | [3] 94 % of control

Clc1cc[c]([Sb]2([c]3ccc(Cl)cc3)([c]3ccc(Cl)cc3)[O]C(C(Cl)(Cl)Cl)[O]2)cc1 (configuration not stated)
inactive: dose: 12.5 mg/kg/injection, schedule: Q01DX009 (ip), vehicle: Klucel (hydroxypropylcellulose) (HPC) 99 % of control | dose: 25.0 mg/kg/injection, schedule: Q01DX009 (ip), vehicle: Klucel (hydroxypropylcellulose) (HPC) 104 % of control | [4] 100 % of control and 95 % of control

c1ccc2c(c1)ccc1c3ccccc3sc21
inactive: [5] 101 % of control | [6] 110 % of control | [7] 103 % of control

CCN(CC)CCCC(C)Nc1cc(C)c2nc(C)cc(C)c2c1C (configuration not stated)
inactive: [8] 98 % of control | dose: 25.0 mg/kg/injection, schedule: Q01DX009 (ip), vehicle: saline 97 % of control | [9] 100 % of control | [10] 90 % of control

C=CCNC(=S)N/N=C/c1nccc(-c2ccccc2)c1C
inactive: [11] 112 % of control | [9] 86 % of control

CC(Nc1ccc(Cl)cc1)S(=O)(=O)O (configuration not stated)
inactive: [10] 106 % of control | [12] 100 % of control | [13] 106 % of control

CC(=O)OC1=CC(=O)N(C(=O)c2ccc(Cl)cc2)C1
inactive: [4] 109 % of control | dose: 100.0 mg/kg/injection, schedule: Q01DX009 (ip), vehicle: Klucel (hydroxypropylcellulose) (HPC) 115 % of control | dose: 200.0 mg/kg/injection, schedule: Q01DX009 (ip), vehicle: Klucel (hydroxypropylcellulose) (HPC) 115 % of control

C[Si](C)(C)n1nnn(-c2ccccc2)c1=O
inactive: [9] 99 % of control and 116 % of control | dose: 100.0 mg/kg/injection, schedule: Q01DX009 (ip), vehicle: saline with Tween-80 112 % of control | dose: 200.0 mg/kg/injection, schedule: Q01DX009 (ip), vehicle: saline with Tween-80 106 % of control

CCOC(=O)C1Cc2c([nH]c(=O)[nH]c2=O)OC1c1cccc(Cl)c1 (configuration not stated)
inactive: dose: 3.12 mg/kg/injection, schedule: Q01DX009 (ip), vehicle: saline with Tween-80 94 % of control | dose: 6.25 mg/kg/injection, schedule: Q01DX009 (ip), vehicle: saline with Tween-80 93 % of control | dose: 12.5 mg/kg/injection, schedule: Q01DX009 (ip), vehicle: saline with Tween-80 96 % of control | [11] 100 % of control

CCc1nc(N)nc(N)c1-c1ccc(OC)c(N)c1
inactive: [14] 102 % of control and 116 % of control | [15] 112 % of control | [16] 119 % of control

CCC1=NC(C)(C)CO1
inactive: [10] 104 % of control | [12] 97 % of control | [13] 97 % of control

Cc1c(C2Nc3ccccc3C2C)[nH]c2ccccc12 (configuration not stated)
inactive: [14] 104 % of control | [15] 100 % of control | [16] 103 % of control

Cc1ncc([N+](=O)[O-])n1CCSC#N
inactive: dose: 6.25 mg/kg/injection, schedule: Q04DX003 (ip), vehicle: saline with Tween-80 105 % of control | dose: 12.5 mg/kg/injection, schedule: Q04DX003 (ip), vehicle: saline with Tween-80 96 % of control

[Cl][Sn]1([Cl])[CH2]CC[CH2][Sn]([Cl])([Cl])[CH2]CC[CH2]1
inactive: dose: 25.0 mg/kg/injection, schedule: Q01DX001 (ip), vehicle: saline 107 % of control | dose: 50.0 mg/kg/injection, schedule: Q01DX001 (ip), vehicle: saline 107 % of control | dose: 100.0 mg/kg/injection, schedule: Q01DX001 (ip), vehicle: saline 120 % of control | dose: 100.0 mg/kg/injection, schedule: Q04DX002 (ip), vehicle: saline 109 % of control

CN1Cc2ccccc2[C@H]2C(c3ccccc3)=NN(c3ccccc3)[C@H]21
inactive: [14] 103 % of control | [15] 94 % of control | [16] 92 % of control

O=C([OH2+])C[N]1C(=O)C[NH][Ga]1[Cl].O=C([OH2+])C[N]1C(=O)C[NH][Ga]1[Cl]
inactive: [5] 108 % of control | [6] 100 % of control | [7] 98 % of control

O=c1[nH]c2cc([N+](=O)[O-])ccc2nc1/C=C(\O)c1cccc([N+](=O)[O-])c1
inactive: dose: 30.0 mg/kg/injection, schedule: Q01DX005 (ip), vehicle: Klucel + Tween-80 96 % of control | dose: 60.0 mg/kg/injection, schedule: Q01DX005 (ip), vehicle: Klucel + Tween-80 88 % of control and 90 % of control | dose: 120.0 mg/kg/injection, schedule: Q01DX005 (ip), vehicle: Klucel + Tween-80 87 % of control | dose: 240.0 mg/kg/injection, schedule: Q01DX005 (ip), vehicle: Klucel + Tween-80 89 % of control

Cc1cc2c(c(=O)o1)C1(C)CC(C)(O2)c2c(cc(C)oc2=O)O1
inactive: [1] 99 % of control | [2] 95 % of control | [3] 89 % of control

CCOC(=O)C1=C(C)NC(=O)NC1c1ccc([N+](=O)[O-])s1 (configuration not stated)
inactive: [5] 87 % of control | [6] 97 % of control | [7] 91 % of control

CCOC(=O)NCCCCC(N)C(=O)O (configuration not stated)
inactive: [10] 97 % of control | [12] 102 % of control | [13] 102 % of control

COc1ccc(C2C3=C(CC(C)(C)CC3=O)Oc3cc4c(cc32)OCO4)c(OC)c1 (configuration not stated)
inactive: [1] 99 % of control | [2] 93 % of control | [3] 92 % of control

Cc1cccc(C(=O)O)c1C
inactive: dose: 50.0 mg/kg/injection, schedule: Q04DX003 (ip), vehicle: gum acacia 100 % of control | dose: 100.0 mg/kg/injection, schedule: Q04DX003 (ip), vehicle: gum acacia 97 % of control | dose: 200.0 mg/kg/injection, schedule: Q04DX003 (ip), vehicle: gum acacia 93 % of control | dose: 400.0 mg/kg/injection, schedule: Q04DX003 (ip), vehicle: gum acacia 98 % of control

O=C1NCCc2ccc(cc2)OCCC(=O)N2CCCC12 (configuration not stated)
inactive: dose: 35.0 mg/kg/injection, schedule: Q01DX005 (ip), vehicle: Klucel (hydroxypropylcellulose) (HPC) 107 % of control | dose: 70.0 mg/kg/injection, schedule: Q01DX005 (ip), vehicle: Klucel (hydroxypropylcellulose) (HPC) 104 % of control | dose: 140.0 mg/kg/injection, schedule: Q01DX005 (ip), vehicle: Klucel (hydroxypropylcellulose) (HPC) 98 % of control

Cc1ccccc1N=C1SCC(=O)N1c1ccccc1C
inactive: [14] 96 % of control | [15] 99 % of control | [16] 91 % of control

O=C([O-])c1cc(Br)cc(Br)c1[OH2+].O=C([O-])c1cc(Br)cc(Br)c1[OH2+].[Mn+2]
inactive: [1] 109 % of control | [2] 115 % of control

COc1ccc(C2C3CCN2CC3)cc1 (configuration not stated)
inactive: dose: 6.25 mg/kg/injection, schedule: Q01DX009 (ip), vehicle: saline 111 % of control | [8] 109 % of control
